Tests used:
[1] = system: HeLa; assay: MTT screening assay, HeLa; assay type: cell-based; details: Homo sapiens, 72 h incubation
Description: The ability of newly synthesized indole phytoalexins to suppress cell proliferation was screened in vitro on eight cancer cell lines including human colorectal carcinoma (Caco-2 and HCT116), human cervical cancer (HeLa), human breast adenocarcinoma (MCF-7, MDA-MB-231), human alveolar adenocarcinoma (A549) and human leukemic T cell lymphoma (Jurkat), and two non-cancer cell lines (MCF-10A, Cos-7).
The cell lines used for this study were Caco-2 (human colorectal adenocarcinoma cell line, American Type Culture Collection, Manassas, VA, USA (ATCC)), HCT116 (human colorectal carcinoma cells European Collection of Authenticated Cell Cultures, Salisbury, UK (ECACC)), HeLa (human cervical tumor cells, ECACC), MCF-7 (human breast tumor cells, ECACC), MDA-MB-231 (human breast tumor cells, ATCC), A549 (human lung carcinoma cells, ATCC), BLM (human melanoma lung metastases, a gift from prof. K. Smetana, Institute of Anatomy, Charles University in Prague), Jurkat (human leukemia cell line, ECACC), Cos-7 (immortalized monkey kidney fibroblasts, ATCC) and MCF-10A (human mammary epithelial cells, ATCC). Caco-2, MCF-7, BLM, Cos-7 and A549 cells were cultured in Dulbecco’s Modified Eagle’s Medium (DMEM) with high glucose and sodium pyruvate (GE Healthcare, Piscataway, NJ, USA); HCT116 lines, HeLa, MDA-MB-231 and Jurkat were cultured in RPMI-1640 medium; and MCF10A cells were cultured in high glucose DMEM/F12 (Dulbecco’s Modified Eagle’s Medium F12). The media were enriched with 10% fetal bovine serum (FBS) and a 1% solution of a mixture of antibiotics and antimycotics 1× HyClone™ (GE Healthcare, Chicago, IL, USA). DMEM/F12 medium was supplemented with epidermal growth factor (EGF) (20 ng/mL final), hydrocortisone (0.5 μg/mL final) and insulin (10 μg/mL final) (Sigma-Aldrich Chemie, Steinheim, Germany). The cells were placed in an incubator at 37 °C with humidified air containing 5% CO2.
The MTT assay is a colorimetric method used to quantify the metabolic activity of cells. MTT (3-(4,5-di-methylthiazol-2-yl)2,5-diphenyltetrazolium bromide) (Sigma-Aldrich Chemie, Steinheim, Germany) is reduced by oxidoreductases in the cytosol of cells to light-absorbing formazan, the presence of which can be measured spectrophotometrically and determines the half-maximal inhibitory concentration (IC50). A549 cells were seeded in […] culture plates at a density of 5 × 10^3 per well. […]
We also incubated the cells with chloroquine at concentrations of 5–20 µM, which was added 1 h before the addition of the test substance, and cisplatin at concentrations of 3–10 µM. […] After 24 h, the absorbance was measured at a wavelength of 540 nm using an automated Cytation™ 3 Cell Imaging Multi-Mode Reader (Biotek, Winooski, VT, USA). […]

[2] = system: A549 cells; assay: Cell cycle analysis by flow cytometry; assay type: cell-based, human
Experimental: To examine whether the antiproliferative effect of compound 49 is associated with cell cycle arrest, flow cytometry analyses of cell cycle progression were performed.
The A549 lung human alveolar adenocarcinoma cells were seeded at a density of 2 × 10^5/dish. After 24 h incubation, the cells were treated with indole phytoalexin 49 at 20 µM concentration alone or after 1 h pre-treatment with chloroquine (20 µM), and the control group with DMSO (v/v 0.02%). The whole population of treated cells (adherent and floating) for cell cycle analyses was harvested at three different times (24, 48 and 72 h), washed in cold washing buffer (PBS), fixed in cold 70% ethanol and stored at −20 °C at least overnight. For flow cytometry analyses, cell suspensions were washed with PBS, resuspended in staining solution (Triton X-100 final concentration 0.1%, ribonuclease A final concentration 0.5 mg/mL, and propidium iodide final concentration 0.025 mg/mL) and incubated for 30 min in the dark at RT. Stained cells were analyzed using a BD FACSCalibur^TM Flow Cytometer (Becton Dickinson, San Jose, CA, USA) in FL-2 channel. Three independent analyses were performed.

## CC(C)(C)OC(=O)n1cc(CNC(=O)Nc2ccc(NC(=O)NCc3cn(C(=O)OC(C)(C)C)c4ccccc34)cc2)c2ccccc21 [Compound 49, N,N′-(1,4-phenylene)bis{N′-[1-(tert-butoxycarbonyl)indol-3-yl]methyl (urea)}]
[1]
  IC50: 8.9 ± 0.2 µM
[2]; A549, 20 µM, 24, 48 and 72 h, vs DMSO
  changes in the G1, S or G2/M phases of the cell cycle: non-significant changes
[2]; A549, 20 µM, all time points, vs DMSO control
  sub-G0/G1 subpopulation (marker of apoptosis): minimal changes
[2]; A549, 49 20 µM + CQ 20 µM, 24 h, vs DMSO, CQ or 49 alone
  cell cycle, combination with CQ: significant cell cycle arrest at the G1 phase
[2]; A549, 49 20 µM + CQ 20 µM, all time points
  subG0/G1 subpopulation, combination with CQ: non-significant changes

— publication PMC9822133, “Design, Synthesis and Antiproliferative Evaluation of Bis-Indole Derivatives with a Phenyl Linker: Focus on Autophagy” (Molecules, 2022)
